Target: T1, human TRPA1 receptor (Homo sapiens, UniProt O75762)
T1 construct: expressed in transfected cells; host or cells: CHO cells
Test: Inhibition of AITC induced cellular uptake of radioactive calcium in human TRPA1 expressing CHO cells
Assay type: cell-based
Conditions: read-out: hTRPA1 IC50 values
Experimental: The human IC50 values were measured by the following method:
The inhibition of TRPA1 receptor activation is measured as inhibition of allylisothiocyanate (AITC) induced cellular uptake of radioactive calcium.
Test compound solution is prepared in a suitable solvent.
Human TRPA1 expressing CHO cells are grown in suitable medium. Cells are treated with test compounds followed by addition of AITC.
Cells are washed, lysed and the radioactivity in the lysate is measured in Packard Top count after addition of liquid scintillant.
The concentration response curves for compounds are plotted as a % of maximal response obtained in the absence of test antagonist, and the IC50 values are calculated from such concentration response curve by nonlinear regression analysis using GraphPad PRISM software.

T1 sequence (O75762 whole entry): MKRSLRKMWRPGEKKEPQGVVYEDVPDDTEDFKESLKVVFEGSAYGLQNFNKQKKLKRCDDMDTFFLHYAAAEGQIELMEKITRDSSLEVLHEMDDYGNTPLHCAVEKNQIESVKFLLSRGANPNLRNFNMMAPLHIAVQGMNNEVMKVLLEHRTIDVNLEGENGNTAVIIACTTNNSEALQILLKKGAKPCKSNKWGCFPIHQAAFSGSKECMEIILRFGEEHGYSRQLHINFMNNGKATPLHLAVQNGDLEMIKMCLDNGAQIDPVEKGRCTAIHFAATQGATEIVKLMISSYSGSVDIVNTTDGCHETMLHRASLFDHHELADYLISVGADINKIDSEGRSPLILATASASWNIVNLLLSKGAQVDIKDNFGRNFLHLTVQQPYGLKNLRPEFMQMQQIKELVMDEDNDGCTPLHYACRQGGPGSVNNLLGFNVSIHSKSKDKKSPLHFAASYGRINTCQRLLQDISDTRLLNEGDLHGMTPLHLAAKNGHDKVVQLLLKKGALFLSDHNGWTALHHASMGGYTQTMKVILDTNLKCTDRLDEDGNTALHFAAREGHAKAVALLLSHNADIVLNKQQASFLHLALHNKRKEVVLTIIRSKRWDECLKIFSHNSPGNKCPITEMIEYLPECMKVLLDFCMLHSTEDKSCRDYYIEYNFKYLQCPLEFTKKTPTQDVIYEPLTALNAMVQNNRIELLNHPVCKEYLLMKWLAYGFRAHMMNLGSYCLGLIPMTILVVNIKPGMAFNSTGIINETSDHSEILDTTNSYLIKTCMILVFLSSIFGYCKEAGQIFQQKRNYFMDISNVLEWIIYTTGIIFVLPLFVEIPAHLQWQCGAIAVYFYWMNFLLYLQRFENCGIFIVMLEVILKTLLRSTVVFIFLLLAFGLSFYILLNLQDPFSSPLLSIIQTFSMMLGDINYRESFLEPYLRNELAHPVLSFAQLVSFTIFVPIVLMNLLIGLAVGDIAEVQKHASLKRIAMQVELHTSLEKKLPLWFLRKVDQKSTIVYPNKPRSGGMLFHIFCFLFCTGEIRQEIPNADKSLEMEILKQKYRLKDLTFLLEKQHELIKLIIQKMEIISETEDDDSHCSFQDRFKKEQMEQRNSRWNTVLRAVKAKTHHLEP

| IC50 | Compound |
| --- | --- |
| 58.9 nM | Cn1c(=O)c2c(CC(=O)Nc3ccn(-c4cccc(C(F)(F)F)c4)n3)cccc2n(C)c1=O [Compound 16] |
| 43.9 nM | CC(C)Cc1ccc(-c2csc(NC(=O)Cc3cccc4c3c(=O)n(C)c(=O)n4C)n2)cc1 [Compound 23] |
| 18 nM | Cn1c(=O)c2c(ccn2CC(=O)Nc2nc(-c3cc(Cl)c(OCCC(F)(F)F)c(Cl)c3)cs2)n(C)c1=O [Compound 35] |
| 12.3 nM | Cn1c(=O)c2c(ccn2CC(=O)Nc2nc(-c3cc(F)c(OCC(F)(F)F)c(F)c3)cs2)n(C)c1=O [Compound 37] |
| 8.36 nM | Cn1c(=O)c2c(cnn2CC(=O)Nc2nc(-c3cc(Cl)c(OCC(C)(C)C)c(Cl)c3)cs2)n(C)c1=O [Compound 44] |
| 4.84 nM | Cn1c(=O)c2c(CC(=O)Nc3nc(-c4ccc(C(F)(F)F)c(F)c4)cs3)csc2n(C)c1=O [Compound 51] |
| 3.38 nM | Cn1c(=O)c2c(CC(=O)Nc3nc(-c4cc(F)c(OCC(F)(F)F)c(F)c4)cs3)coc2n(C)c1=O [Compound 56] |
| 6.65 nM | Cc1oc2c(c1CC(=O)Nc1nc(-c3ccc(C(F)(F)F)c(F)c3)cs1)c(=O)n(C)c(=O)n2C [Compound 65] |
| 5.61 nM | COCCCOc1cccc(C2NC(=S)NC3=C2C(=O)c2ccccc23)c1 (centres unmarked) [Compound 90] |
| 451 nM | Cn1c(=O)c2c(ncn2CC(=O)Nc2nc(-c3ccc(Br)cc3)cs2)n(C)c1=O [Compound 91] |
| 17.1 nM | Cn1c(=O)c2c(CC(=O)Nc3nc(-c4ccc(F)c(C(F)(F)F)c4F)cs3)onc2n(C)c1=O [Compound 92] |
| 54.3 nM | Cc1oc2c(c1CC(=O)N=c1scc(-c3ccc(OC(F)(F)F)c(Cl)c3)n1COC(=O)CN)c(=O)n(C)c(=O)n2C [Compound 98] |

| Compound | IC50 |
| --- | --- |
| Cn1c(=O)c2c(CC(=O)Nc3nc(-c4ccc(F)c(C(F)(F)F)c4F)cs3)csc2n(C)c1=O [Compound 52] | 2.49 nM |
| Cc1oc2c(c1CC(=O)Nc1nc(-c3ccc(OC(F)(F)F)c(Cl)c3)cs1)c(=O)n(C)c(=O)n2C [Compound 73] | 8.54 nM |
| Cn1c(=O)c2c(CC(=O)Nc3nc(-c4ccc(C(F)(F)F)c(F)c4F)cs3)nsc2n(C)c1=O [Compound 84] | 5.35 nM |
| Cn1c(=O)c2c(CC(=O)Nc3nc(-c4ccc(OC(F)(F)F)c(F)c4)cs3)nccc2n(C)c1=O [Compound 88] | 11.4 nM |
| Cc1oc2c(c1CC(=O)/N=c1\scc(-c3ccc(OC(F)(F)F)c(Cl)c3)n1COC(=O)[C@@H](N)C(C)C)c(=O)n(C)c(=O)n2C [Compound 95] | 88.5 nM |
